Here are results for 22 compounds from US11999746B2, “Compounds” (GlaxoSmithKline Intellectual Property Development Limited, priority 2014, dated 2024).

Structures are written as SMILES. A value given as a limit tells only on which side of the number the result lay.

The target of one assay is T1, Lp-PLA2 in human plasma (Homo sapiens, UniProt Q13093).
T1 construct: from tissue; host or cells: pooled human plasma
T1 sequence (Q13093 22-441): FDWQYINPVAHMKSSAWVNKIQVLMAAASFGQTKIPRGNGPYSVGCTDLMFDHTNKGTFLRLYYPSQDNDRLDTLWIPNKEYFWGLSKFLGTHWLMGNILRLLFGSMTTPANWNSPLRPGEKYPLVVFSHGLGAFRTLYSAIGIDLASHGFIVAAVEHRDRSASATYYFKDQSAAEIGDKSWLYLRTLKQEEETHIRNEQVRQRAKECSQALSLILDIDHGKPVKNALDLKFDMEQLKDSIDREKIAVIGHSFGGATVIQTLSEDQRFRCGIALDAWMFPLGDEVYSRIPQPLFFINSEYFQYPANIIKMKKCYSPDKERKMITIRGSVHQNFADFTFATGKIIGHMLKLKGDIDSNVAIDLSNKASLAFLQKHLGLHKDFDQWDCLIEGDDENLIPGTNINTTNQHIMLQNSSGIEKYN
The assay is described as follows: (3a) Lp-PLA2 human plasma Thio-PAF assay. Type of assay: biochemical. The conditions noted are these: (3a) Thio-PAF assay, pooled human plasma; Examples 1-265 and 413-430 were tested here; read-out: pIC50 in the Lp-PLA2 human plasma assay (converted). The source says:
(3) Lipoprotein-Associated Phospholipase A2 (Lp-PLA2) Human Plasma Assay
The human plasma assay utilizes a thioester analog of PAF (phosphatidylcholine), where hydrolysis yields to the formation of a phospholipid containing a free thiol group. The amount of thiol is quantitated continuously by reacting with CPM (7-diethylamino-3-(4′-maleimidylphenyl)-4-methylcoumarin), a maleimide which increases in fluoresence after Michael addition of thiols. This assay may detect the activity of Lp-PLA2 in human plasma, as determined by specific inhibition by Lp-PLA2 inhibitors.
The thio-PAF assay was run as a quenched 15 μL assay. Compounds source plate was prepared by making 1:3 (by volume) serial dilution of the compounds into pure DMSO on 384-well microplate. 0.01 μL of compounds on compound source plate were transferred to 384 well Greiner 784076 (black) low-volume plates by ECHO liquid dispenser. 8 μL pooled human plasma, which was previously aliquoted and frozen, was added. Plates were centrifuged for 10 sec at 500 rpm. After 30 minutes preincubation, 2 μL of substrate solution comprising 2.5 mM 2-thio-PAF [from ethanol stock], 32 μM CPM [from a DMSO stock] and 3.2 mM NEM (N-ethylmaleimide) [made fresh daily in DMSO] in assay buffer of 50 mM HEPES, pH 7.4, 150 mM NaCl, 1 mM CHAPS was added to 384 well Greiner 784076 (black) low-volume plates by BRAVO liquid handling station. After 2 mins, reaction was quenched with 5 μL of 5% aqueous trifluoroacetic acid (TFA). Plates were covered to protect from light and incubated for 40 min at room temperature. Plates were read at ex: 380/em: 485 using Envision microplate reader. PIC50 data, curve and QC analysis were conducted by using XLFit module in Excel.
Consider `O=c1nc(OCc2cccc(F)c2)cc2n1C[C@@H]1CCCN21` [Example E214, (S)-3-((3-fluorobenzyl)oxy)-7,8,8a,9-tetrahydropyrrolo[1,2′:3,4]imidazo[1,2-c]pyrimidin-1(6H)-one], for which the IC50 was at most 10 µM. Same read-out and setting: the result for `O=c1nc(OCc2cc(F)c(F)cc2F)cc2n1C[C@H]1COCCN21` [Example E220, (S)-7-((2,4,5-trifluorobenzyl)oxy)-3,4,11,11a-tetrahydropyrimido[6′,1′:2,3]imidazo[5,1-c] [1,4]oxazin-9(1H)-one] reads at most 10 µM; that for `O=c1nc(OCc2cc(F)c(OC3(CCF)CC3)c(F)c2)cc2n1C[C@@H]1COCN21` [Example E193, (R)-6-((3,5-difluoro-4-(1-(2-fluoroethyl)cyclopropoxy)benzyl)oxy)-10,10a-dihydro-1H-oxazolo[3′,4′:3,4]imidazo[1,2-c]pyrimidin-8(3H)-one], at most 10 µM; that for `N#Cc1ccc(CCOc2cc3n(c(=O)n2)C[C@H]2CCCN32)cc1` [Example E254, (R)-4-(2-((1-oxo-1,6,7,8,8a,9-hexahydropyrrolo[1′,2′:3,4]imidazo[1,2-c]pyrimidin-3-yl)oxy)ethyl)benzonitrile], at most 10 µM. For `O=c1nc(OCc2cc(F)c(F)cc2F)cc2n1C[C@H]1COCN21` [Example E173, (S)-6-((2,4,5-trifluorobenzyl)oxy)-10,10a-dihydro-1H-oxazolo[3′,4′:3,4]imidazo[1,2-c] pyrimidin-8(3H)-one], the IC50 was at most 10 µM.

In the case of `O=c1nc(OCCc2cccc(F)c2)cc2n1C[C@H]1CCCN21` [Example E249, (R)-3-(3-fluorophenethoxy)-7,8,8a,9-tetrahydropyrrolo[1′,2′:3,4]imidazo[1,2-c]pyrimidin-1(6H)-one], the IC50 is at most 10 µM. For `Cn1cc(Oc2c(F)cc(COc3cc4n(c(=O)n3)CC3OCCN43)cc2F)cn1` (single isomer, unassigned) [Example E189, 6-((3,5-difluoro-4-((1-methyl-1H-pyrazol-4-yl)oxy)benzyl)oxy)-10,10a-dihydro-2H-oxazolo[3′,2′:3,4]imidazo[1,2-c]pyrimidin-8(3H)-one], the IC50 was at most 10 µM. The same measure, in the same setting: to `O=c1nc(OCc2cccc(F)c2)cc2n1C[C@@H]1COCN21` [Example E171, (R)-6-((3-fluorobenzyl)oxy)-10,10a-dihydro-1H-oxazolo[3′,4′:3,4]imidazo[1,2-c]pyrimidin-8(3H)-one] belongs at most 10 µM; to `O=c1nc(CCc2cccc(F)c2)cc2n1C[C@@H]1COCCN21` [Example E256, (R)-7-(3-fluorophenethyl)-3,4,11,11a-tetrahydropyrimido[6′,1′:2,3]imidazo[5,1-c][1,4]oxazin-9(1H)-one], at most 10 µM. Regarding `O=c1nc(OCc2cc(F)c(OC3(CCF)CC3)c(F)c2)cc2n1C[C@H]1COCN21` [Example E197, (S)-6-((3,5-difluoro-4-(1-(2-fluoroethyl)cyclopropoxy)benzyl)oxy)-10,10a-dihydro-1H-oxazolo[3′,4′:3,4]imidazo[1,2-c]pyrimidin-8(3H)-one], the IC50 was at most 10 µM. The same measure, in the same setting: to `O=c1nc(OCCc2cccc(F)c2)cc2n1C[C@H]1COCN21` [Example E186, (S)-6-(3-fluorophenethoxy)-10,10a-dihydro-1H-oxazolo[3′,4′:3,4]imidazo[1,2-c]pyrimidin-8(3H)-one] belongs at most 10 µM; to `O=c1nc(OCCc2cccc(F)c2)cc2n1C[C@@H]1COCCN21` [Example E246, (R)-7-(3-fluorophenethoxy)-3,4,11,11a-tetrahydropyrimido[6′,1′:2,3]imidazo[5,1-c][1,4] oxazin-9(1H)-one], at most 10 µM; to `O=c1nc(OCc2cc(F)cc(F)c2)cc2n1CC1OCCN21` (stereo not shown) [Example E184, 6-((3,5-Difluorobenzyl)oxy)-10,10a-dihydro-2H-oxazolo[3′,2′:3,4]imidazo[1,2-c]pyrimidin-8 (3H)-one], at most 10 µM.

In the case of `O=c1nc(OCc2cccc(F)c2F)cc2n1C[C@@H]1CCOCN21` [Example E183, (S)-3-((2,3-difluorobenzyl)oxy)-8,9,9a,10-tetrahydropyrimido[6′,1′:2,3]imidazo[1,5-c][1,3] oxazin-1(6H)-one], the IC50 was at most 10 µM.

Regarding `O=c1nc(OCc2cc(F)c(F)cc2F)cc2n1C[C@H]1CCCN21` [Example E218, (R)-3-((2,4,5-trifluorobenzyl)oxy)-7,8,8a,9-tetrahydropyrrolo[1′,2′:3,4]imidazo[1,2-c]pyrimidin-1(6H)-one], the IC50 is at most 10 µM. The same measure, in the same setting: to `O=c1nc(OCc2cc(F)c(F)c(F)c2)cc2n1CC1OCCN21` (stereo not shown) [Example E188, 6-((3,4,5-Trifluorobenzyl)oxy)-10,10a-dihydro-2H-oxazolo[3′,2′:3,4]imidazo[1,2-c]pyrimidin-8(3H)-one] belongs at most 10 µM; to `O=c1nc(OCc2ccc(CN3CCCC(F)(F)C3)c(F)c2)cc2n1C[C@@H]1CCCCN21` [Example E205, (S)-3-((4-((3,3-difluoropiperidin-1-yl)methyl)-3-fluorobenzyl)oxy)-6,7,8,9,9a,10-hexahydro-1H-pyrido[1′,2′:3,4]imidazo[1,2-c]pyrimidin-1-one], at most 10 µM.

The target in a further assay is T2, recombinant human Lp-PLA2 (Homo sapiens, UniProt Q13093).
T2 sequence (Q13093 22-441): T1 sequence (Q13093 22-441)
The assay is described as follows: (1a) PED6 assay, recombinant human Lp-PLA2 (rhLp-PLA2). Type of assay: biochemical. The conditions noted are these: Examples 1-167 and 413-430 were tested here, one experiment or average of multiple experiments, read-out: rhLp-PLA2 (pIC50) (converted). An excerpt: (1) Recombinant Human Lp-PLA2 Assays (rhLp-PLA2)
N-((6-(2,4-Dinitrophenyl)amino)-hexanoyl)-2-(4,4-difluoro-5,7-dimethyl-4-bora-3a,4a-diaza-s-indacene-3-pentanoyl)-1-hexadecanoyl-sn-glycero-3-phosphoethanolamine, triethylammonium salt (PED6) is a commercially available fluorescently-labeled phospholipid, which is commercially available from Invitrogene and Molecular Probes. There is a quenching […] and a Bodipy fluorescein (FL) group in the sn2 position. Upon cleavage with Lp-PLA2, the Bodipy FL group is liberated and then may result in an increase in fluorescence. Inhibitors of Lp-PLA2 therefore prevent this cleavage and no fluorescent increase is observed.
The PED6 assay was run as an unquenched 10 μL assay. The source plate containing the compounds to be tested was prepared by making 1:3 (by volume) serial dilution of the compounds within DMSO on 384-well microplate. Then, 0.01 μL of the compounds on compound source plate were transferred into 384 well Greiner 784076 (black) plates using ECHO liquid dispenser. 5 μL of recombinant human Lp-PLA2 enzyme (4 nM) rhLp-PLA2 in assay buffer of 50 mM HEPES, pH 7.4, 150 mM NaCl, 1 mM CHAPS) was added to each well of the plate. Plates were centrifuged for 10 sec at 500 rpm. After 30 minutes preincubation, 5 μL of substrate (4 μM PED6 [from 5 mM DMSO stock] in assay buffer of 50 mM HEPES, pH 7.4, 150 mM NaCl, 1 mM CHAPS) was added to 384 well Greiner 784076 (black) plates. Plates were centrifuged for 10 sec at 500 rpm. The plate was covered to protect it from light and incubated for 20 min at room temperature. The plates were read for fluorescence intensity at ex: 480/em: 540 using ViewLux microplate imager for Envision spectrofluroimeters. pIC50 data, curve and QC analysis was conducted by using XL fit module in Excel.
On to `O=c1nc(OCc2ccc(C(F)(F)F)c(Cl)c2)cc2n1CC1CCCCN21` (stereo not shown) [Example E7, 3-((3-Chloro-4-(trifluoromethyl)benzyl)oxy)-6,7,8,9,9a,10-hexahydro-1H-pyrido[1′,2′:3,4] imidazo[1,2-c]pyrimidin-1-one], for which the IC50 is at most 10 µM.

Turning to `N#Cc1ccc(COc2cc3n(c(=O)n2)CC2CCCCN32)cc1` (stereo not shown) [Example E4, 4-(((1-Oxo-6,7,8,9,9a,10-Hexahydro-1H-pyrido[1′,2′:3,4]imidazo[1,2-c]pyrimidin-3-yl)oxy)methyl)benzonitrile], the IC50 is at most 10 µM. Take `Cc1ccc(COc2cc3n(c(=O)n2)CC2CCCCN32)cc1` (stereo not shown) [Example E9, 3-((4-Methylbenzyl)oxy)-6,7,8,9,9a,10-hexahydro-1H-pyrido[1,2′:3,4]imidazo[1,2-c] pyrimidin-1-one]: the IC50 was at most 10 µM. Same read-out and setting: the result for `CN(Cc1ccc(F)cc1F)c1cc2n(c(=O)n1)C[C@@H]1CCCCN21` [Example E61, (S)-3-((2,4-Difluorobenzyl)(methyl)amino)-6,7,8,9,9a,10-hexahydro-1H-pyrido[1′,2′:3,4] imidazo[1,2-c]pyrimidin-1-one] reads at most 0.1 µM. Take `O=c1nc(OCc2cc(F)c(Oc3ccnc(C(F)(F)F)c3)c(F)c2)cc2n1C[C@@H]1CCCN21` [Example E71, (S)-3-((3,5-difluoro-4-((2-(trifluoromethyl)pyridin-4-yl)oxy)benzyl)oxy)-7,8,8a, 9-tetra hydropyrrolo[1′,2′:3,4]imidazo[1,2-c]pyrimidin-1(6H)-one]: the IC50 was at most 0.001 µM.
